This is an account of results in ChEMBL document CHEMBL1201862, “PubChem BioAssay data set” (2004).

Some test systems named below: Hs-578T; KM12; TK-10; A498; MDA-MB-231; NCI-H226; HCC 2998; A549; SNB-19; COLO 205; SK-MEL-5; SK-MEL-28; SR; SK-MEL-2; OVCAR-5; MCF7; RXF 393; DU-145; OVCAR-8; LOX IMVI.
What all share (experiment): NCI tumour cell line growth inhibition, 48 h

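Five compound concentrations were applied to cells in 96-well plates for 48 hours; endpoints were derived by simple linear interpolation of the resulting dose-response curve. At the GI50, growth is halved.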 Calls of active or inactive are those of the source. No stated cut-off is given here; in the data, active = GI50 up to about 1.1 µM and inactive = higher.

`COC(O)C12OC3CO[Si](C(C)C)(C(C)C)O[Si](C(C)C)(C(C)C)OC3C1Oc1nc(=O)ccn12` (stereo not given): the GI50 in the experiment with Hs-578T is 2.67 µM (inactive); with KM12, 5.61 µM (inactive); in the experiment on TK-10, 14.3 µM (inactive); in the experiment on A498, 17.3 µM (inactive); with MDA-MB-231 it was 17.1 µM (inactive); in the experiment on NCI-H226 it was 17.7 µM (inactive). In addition, the GI50 with HCC 2998 was 3.94 µM (inactive); in the experiment on A549 it was 12.6 µM (inactive); in the experiment with SNB-19 it was 14.4 µM (inactive); in the experiment on COLO 205, 12.7 µM (inactive); with SK-MEL-5 it was 7.87 µM (inactive); in the experiment on SK-MEL-28 it was > 100 µM (inactive). For the same compound, the GI50 in the experiment on SR was 1.23 µM (inactive); in the experiment with SK-MEL-2, 12 µM (inactive); in the experiment with OVCAR-5 it was 15.7 µM (inactive); with MCF7, 10.5 µM (inactive); with RXF 393, 11.9 µM (inactive); with DU-145, 16.3 µM (inactive). Also, the GI50 with OVCAR-8 is 11.2 µM (inactive); with LOX IMVI, 12.7 µM (inactive).
For `Cc1ccc(/N=C2/C(c3ccccc3)=C(SC3=C(c4ccccc4)/C(=N/c4ccc(C)cc4)c4ccccc43)c3ccccc32)cc1`, the GI50 in the experiment with Hs-578T is 9.98 µM (inactive); in the experiment on KM12 it was 39.4 µM (inactive); with TK-10 it was 31.9 µM (inactive); with A498, 15.2 µM (inactive); with MDA-MB-231, 12.6 µM (inactive); with NCI-H226, 24.4 µM (inactive). The GI50 was > 37.9 µM (inactive) in the experiment on HCC 2998; 32.9 µM (inactive) in the experiment with A549; 6.31 µM (inactive) in the experiment with SNB-19; > 100 µM (inactive) in the experiment on COLO 205; 19.4 µM (inactive) with SK-MEL-5; > 39.7 µM (inactive) in the experiment with SK-MEL-28. Also, the GI50 with SR is > 100 µM (inactive); with SK-MEL-2, > 39.1 µM (inactive); in the experiment with OVCAR-5, 39 µM (inactive); in the experiment with MCF7 it was 27.1 µM (inactive); with RXF 393 it was 12.4 µM (inactive); with DU-145, 32.1 µM (inactive). The GI50 is 9.59 µM (inactive) with OVCAR-8 and 67.6 µM (inactive) in the experiment with LOX IMVI.
As to `CCOP(=O)(OCC)/C(C#N)=C/c1ccc(-c2ccc(F)cc2F)o1`, the GI50 with Hs-578T is > 10 µM (inactive); in the experiment with KM12 it was 16 µM (inactive); with TK-10 it was 12.6 µM (inactive); in the experiment on A498 it was 15.1 µM (inactive); with MDA-MB-231 it was 16.7 µM (inactive); with NCI-H226 it was 16.5 µM (inactive). Further, the GI50 with HCC 2998 was 14 µM (inactive); with A549 it was 15.3 µM (inactive); with SNB-19, 16.9 µM (inactive); with COLO 205 it was 14.9 µM (inactive); in the experiment on SK-MEL-5 it was 10.6 µM (inactive); with SK-MEL-28, 14.8 µM (inactive). The GI50 with SR is 15 µM (inactive); in the experiment on SK-MEL-2, 23.5 µM (inactive); with OVCAR-5, 17.3 µM (inactive); in the experiment with MCF7, 19.7 µM (inactive); with RXF 393, 29 µM (inactive); with DU-145, 27.2 µM (inactive). Moreover, the GI50 was 15.2 µM (inactive) in the experiment with OVCAR-8 and 13.3 µM (inactive) in the experiment on LOX IMVI.
For `Cc1ccc(OCCn2cc(Nc3ccccc3)c(=O)[nH]c2=O)cc1`, the GI50 in the experiment with Hs-578T is 22.1 µM (inactive); with KM12, > 100 µM (inactive); in the experiment with TK-10 it was > 100 µM (inactive); in the experiment on A498, > 100 µM (inactive); in the experiment with MDA-MB-231, > 100 µM (inactive); in the experiment with NCI-H226, > 100 µM (inactive). In addition, the GI50 in the experiment with HCC 2998, in the experiment with A549, with SNB-19, in the experiment on COLO 205, in the experiment on SK-MEL-5 and in the experiment with SK-MEL-28 was > 100 µM (inactive) throughout. The GI50 with SR, in the experiment with SK-MEL-2, in the experiment with OVCAR-5, in the experiment with MCF7, in the experiment on RXF 393 and in the experiment on DU-145 was > 100 µM (inactive) in each case. The GI50 with OVCAR-8 and in the experiment on LOX IMVI was > 100 µM (inactive) in each case.
In the case of `COc1ccc(/C=C/C(=O)N[C@@H]2C(=O)N3[C@@H]2SC(C)(C)[C@@H]3C(=O)O)cc1OC`, the GI50 in the experiment on Hs-578T, with KM12, in the experiment with TK-10, in the experiment on A498, in the experiment with MDA-MB-231 and in the experiment with NCI-H226 was > 100 µM (inactive) each time. The GI50 in the experiment on HCC 2998, in the experiment on A549, in the experiment on SNB-19, in the experiment on COLO 205, in the experiment with SK-MEL-5 and in the experiment with SK-MEL-28 was > 100 µM (inactive) each time. The GI50 with SR, in the experiment with SK-MEL-2, in the experiment on OVCAR-5, in the experiment with MCF7, with RXF 393 and in the experiment on DU-145 was > 100 µM (inactive) in each case. Also, the GI50 with OVCAR-8 and in the experiment with LOX IMVI was > 100 µM (inactive) each time.
In the case of `COc1ccc(CC[N+]2(C)COc3cc4oc(=O)cc(C)c4cc3C2)cc1OC` (stereo not given), the GI50 in the experiment with Hs-578T, in the experiment on KM12, in the experiment on TK-10, with A498, in the experiment on MDA-MB-231 and in the experiment on NCI-H226 was > 100 µM (inactive) in each case. In addition, the GI50 in the experiment with HCC 2998, in the experiment with A549, in the experiment with SNB-19, with COLO 205, in the experiment with SK-MEL-5 and with SK-MEL-28 was > 100 µM (inactive) each time. Besides, the GI50 in the experiment on SR was 0.0782 µM (active); in the experiment with SK-MEL-2, > 100 µM (inactive); with OVCAR-5, > 100 µM (inactive); in the experiment with MCF7, > 100 µM (inactive); with RXF 393, > 100 µM (inactive); with DU-145, > 100 µM (inactive). For the same compound, the GI50 in the experiment on OVCAR-8 and in the experiment with LOX IMVI was > 100 µM (inactive) throughout.
For the compound `Cc1cc2c(nn1)-c1ccccc1C2=O`, the GI50 with Hs-578T, with KM12, with TK-10, in the experiment on A498, with MDA-MB-231 and in the experiment on NCI-H226 was > 10 µM (inactive) in each case. In addition, the GI50 in the experiment with HCC 2998, in the experiment on A549, in the experiment with SNB-19, with COLO 205, in the experiment on SK-MEL-5 and with SK-MEL-28 was > 10 µM (inactive) each time. The GI50 in the experiment with SR, in the experiment on SK-MEL-2, in the experiment with OVCAR-5, in the experiment with MCF7, in the experiment on RXF 393 and in the experiment on DU-145 was > 10 µM (inactive) in each case. In addition, the GI50 in the experiment on OVCAR-8 and with LOX IMVI was > 10 µM (inactive) each time.
